According to ChEMBL document CHEMBL1132959, “Design of potent dicyclic (1-5/4-10) gonadotropin releasing hormone (GnRH) antagonists” (J Med Chem, 2000):
Blank lines part the entries; values can stand above or below the compound they belong to. Square brackets hold non-standard residues; d marks the D form. Peptide text beside a SMILES is read from it. dPhe(4-Cl) = N[C@H](Cc1ccc(Cl)cc1)C(=O)O; NMeL = CN[C@@H](CC(C)C)C(=O)O; ΔPro = O=C(O)[C@@H]1C=CCN1; βAla = NCCC(=O)O

Key:
[1] = molecular target: T1, Gonadotropin-releasing hormone receptor (Rattus norvegicus, UniProt P30969); test: Affinity for rat Gonadotropin-releasing hormone receptor membrane evaluated using HEK293 cells transfected with rat Gonadotropin-releasing hormone receptor; type: cell-based
T1 sequence (P30969 whole entry): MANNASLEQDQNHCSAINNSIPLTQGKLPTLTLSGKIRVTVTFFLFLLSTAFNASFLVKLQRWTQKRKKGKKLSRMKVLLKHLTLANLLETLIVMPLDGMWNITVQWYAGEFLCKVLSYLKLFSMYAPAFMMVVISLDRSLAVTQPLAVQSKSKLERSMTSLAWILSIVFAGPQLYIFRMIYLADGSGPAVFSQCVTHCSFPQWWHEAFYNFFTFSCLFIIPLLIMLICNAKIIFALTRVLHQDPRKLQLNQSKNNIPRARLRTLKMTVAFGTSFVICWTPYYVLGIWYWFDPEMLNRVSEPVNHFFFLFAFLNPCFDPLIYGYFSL

[2] = species on record: Rattus norvegicus; test: Antiovulatory potency at 50 ug/rat expressed as rats ovulating by total no. of rats (0/3); type: functional
[3] = species on record: Rattus norvegicus; test: Antiovulatory potency at 10 ug/rat expressed as rats ovulating by total no. of rats (4/5); type: functional
[4] = species on record: Rattus norvegicus; test: Antiovulatory potency at 25 ug/rat expressed as rats ovulating by total no. of rats (3/8); type: functional
[5] = molecular target: T1, Gonadotropin-releasing hormone receptor; test: Affinity for rat gonadotrophin releasing hormone (GnRH) receptor using HEK293 cells transfected with rat Gonadotropin-releasing hormone receptor; type: cell-based; conditions: hek293
[6] = species on record: Rattus norvegicus; test: Antiovulatory potency at 500 ug/rat expressed as rats ovulating by total no. of rats (5/7); type: functional
[7] = species on record: Rattus norvegicus; test: Antiovulatory potency at 250 ug/rat expressed as rats ovulating by total no. of rats (5/5); type: functional
[8] = species on record: Rattus norvegicus; test: Antiovulatory potency at 100 ug/rat expressed as rats ovulating by total no. of rats (0/4); type: functional
[9] = species on record: Rattus norvegicus; test: Antiovulatory potency at 1 ug/rat expressed as rats ovulating by total no. of rats (5/7); type: functional
[10] = species on record: Rattus norvegicus; test: Antiovulatory potency at 2.5 ug/rat expressed as rats ovulating by total no. of rats (4/16); type: functional
[11] = species on record: Rattus norvegicus; test: Antiovulatory potency at 5 ug/rat expressed as rats ovulating by total no. of rats (0/5); type: functional
[12] = species on record: Rattus norvegicus; test: Antiovulatory potency at 10 ug/rat expressed as rats ovulating by total no. of rats (0/10); type: functional
[13] = species on record: Rattus norvegicus; test: Antiovulatory potency at 5 ug/rat expressed as rats ovulating by total no. of rats (3/20); type: functional
[14] = species on record: Rattus norvegicus; test: Antiovulatory potency at 1500 ug/rat expressed as rats ovulating by total no. of rats (9/10); type: functional
[15] = species on record: Rattus norvegicus; test: Antiovulatory potency at 250 ug/rat expressed as rats ovulating by total no. of rats (5/6); type: functional
[16] = species on record: Rattus norvegicus; test: Antiovulatory potency at 50 ug/rat expressed as rats ovulating by total no. of rats (5/5); type: functional
[17] = species on record: Rattus norvegicus; test: Antiovulatory potency at 1 ug/rat expressed as rats ovulating by total no. of rats (4/4); type: functional
[18] = species on record: Rattus norvegicus; test: Antiovulatory potency at 2.5 ug/rat expressed as rats ovulating by total no. of rats (3/5); type: functional
[19] = species on record: Rattus norvegicus; test: Antiovulatory potency at 5 ug/rat expressed as rats ovulating by total no. of rats (3/5); type: functional
[20] = species on record: Rattus norvegicus; test: Antiovulatory potency at 250 ug/rat expressed as rats ovulating by total no. of rats (3/3); type: functional
[21] = species on record: Rattus norvegicus; test: Antiovulatory potency at 25 ug/rat expressed as rats ovulating by total no. of rats (3/7); type: functional
[22] = species on record: Rattus norvegicus; test: Antiovulatory potency at 50 ug/rat expressed as rats ovulating by total no. of rats (0/5); type: functional
[23] = species on record: Rattus norvegicus; test: Antiovulatory potency at 10 ug/rat expressed as rats ovulating by total no. of rats (5/5); type: functional
[24] = species on record: Rattus norvegicus; test: Antiovulatory potency at 10 ug/rat expressed as rats ovulating by total no. of rats (0/6); type: functional
[25] = species on record: Rattus norvegicus; test: Antiovulatory potency at 2.5 ug/rat expressed as rats ovulating by total no. of rats (2/8); type: functional
[26] = species on record: Rattus norvegicus; test: Antiovulatory potency at 5 ug/rat expressed as rats ovulating by total no. of rats (1/7); type: functional
[27] = species on record: Rattus norvegicus; test: Antiovulatory potency at 250 ug/rat expressed as rats ovulating by total no. of rats (0/5); type: functional
[28] = species on record: Rattus norvegicus; test: Antiovulatory potency at 100 ug/rat expressed as rats ovulating by total no. of rats (5/5); type: functional

Ki [1]: 0.26 nM
Structure (SMILES): CC(=O)N[C@@H]1CCC(=O)NCCCC[C@H]2NC(=O)[C@@H](CC(=O)NC[C@H](C(N)=O)NC(=O)[C@H]3CCCN3C(=O)[C@H](CCCN=C(N)N)NC(=O)[C@@H](CC(C)C)NC(=O)[C@@H](Cc3ccc4ccccc4c3)NC2=O)NC(=O)[C@@H](Cc2c[nH]c3ccccc23)NC(=O)[C@H](Cc2ccc(Cl)cc2)NC1=O
Ovulating rats [2]: 0
Ovulating rats [3]: 4
Ovulating rats [4]: 3

Ki [5]: 13 nM
Structure (SMILES): CC(=O)N[C@H](Cc1ccc2ccccc2c1)C(=O)N[C@H]1CSSC[C@@H]2NC(=O)[C@H](Cc3ccc(O)cc3)NC(=O)[C@H](CC(=O)NC[C@@H](C(N)=O)NC(=O)[C@@H]3CCCN3C(=O)[C@H](CCCN=C(N)N)NC(=O)[C@H](CC(C)C)NC2=O)NC(=O)[C@@H](Cc2c[nH]c3ccccc23)NC1=O
Ovulating rats [6]: 5

Structure (SMILES): CC(=O)N[C@H](Cc1ccc2ccccc2c1)C(=O)N[C@H](Cc1ccc(Cl)cc1)C(=O)N[C@@H]1CC(=O)NCCCC[C@@H]2NC(=O)[C@H](CC(C)C)NC(=O)[C@@H](CCCN=C(N)N)NC(=O)[C@H](Cc3ccc(O)cc3)NC(=O)[C@H](CC(=O)NC[C@@H](C(N)=O)NC(=O)[C@@H]3CCCN3C2=O)NC1=O
Ovulating rats [7]: 5
Ovulating rats [8]: 0

Structure (SMILES): CC(=O)N[C@H]1CC(=O)NCC(=O)NCC[C@@H]2NC(=O)[C@H](CC(=O)NC[C@@H](C(N)=O)NC(=O)[C@@H]3CCCN3C(=O)[C@H](CCCN=C(N)N)NC(=O)[C@H](CC(C)C)NC(=O)[C@@H](Cc3ccc4ccccc4c3)NC2=O)NC(=O)[C@@H](Cc2c[nH]c3ccccc23)NC(=O)[C@@H](Cc2ccc(Cl)cc2)NC1=O
Ovulating rats [9]: 5
Ovulating rats [10]: 4
Ovulating rats [11]: 0

Structure (SMILES): CC(=O)N[C@H](Cc1ccc2ccccc2c1)C(=O)N[C@H](Cc1ccc(F)cc1)C(=O)N[C@H](Cc1c[nH]c2ccccc12)C(=O)N[C@H]1CC(=O)NC[C@@H](C(N)=O)NC(=O)[C@@H]2CCCN2C(=O)[C@@H]2CCCCNC(=O)CC[C@H](NC1=O)C(=O)N[C@H](CCCN=C(N)N)C(=O)N[C@@H](CC(C)C)C(=O)N2
Ovulating rats [12]: 0
Ovulating rats [13]: 3

Structure (SMILES): CC(C)C[C@H]1C(=O)N[C@@H](CCCN=C(N)N)C(=O)N2CCC[C@H]2C(=O)NCCC(=O)N2CC=C[C@H]2C(=O)N[C@H](Cc2ccc(Cl)cc2)C(=O)N[C@H](Cc2c[nH]c3ccccc23)C(=O)N[C@@H](CO)C(=O)N[C@@H](Cc2ccc(O)cc2)C(=O)N[C@H](Cc2c[nH]c3ccccc23)C(=O)N1C (cyclo([NMeL]RP[βAla][ΔPro][dPhe(4-Cl)][dW]SY[dW]))
Ovulating rats [14]: 9

Structure (SMILES): CC(=O)N[C@H](Cc1ccc2ccccc2c1)C(=O)N[C@H](Cc1ccc(Cl)cc1)C(=O)N[C@@H]1CSSC[C@@H](C(=O)N2CCC[C@H]2C(=O)N[C@H](C)C(N)=O)NC(=O)[C@H](CC(C)C)NC(=O)[C@@H](Cc2ccc3ccccc3c2)NC(=O)[C@H](CCCN=C(N)N)NC(=O)[C@H](C)NC1=O
Ovulating rats [15]: 5
Ovulating rats [16]: 5

Ki [5]: 0.12 nM
Structure (SMILES): CC(=O)N[C@@H]1CC(=O)NCC(=O)NCC[C@H]2NC(=O)[C@@H](CC(=O)NC[C@H](C(N)=O)NC(=O)[C@H]3CCCN3C(=O)[C@H](CCCN=C(N)N)NC(=O)[C@@H](CC(C)C)NC(=O)[C@@H](Cc3ccc4ccccc4c3)NC2=O)NC(=O)[C@@H](Cc2cccnc2)NC(=O)[C@H](Cc2ccc(Cl)cc2)NC1=O
Ovulating rats [17]: 4
Ovulating rats [18]: 3
Ovulating rats [19]: 3

Ki [5]: 1.6 nM
Structure (SMILES): CC(=O)N[C@@H]1CC(=O)NCC(=O)NCC[C@H]2NC(=O)[C@@H](CC(=O)NC[C@H](C(N)=O)NC(=O)[C@H]3CCCN3C(=O)[C@H](CCCN=C(N)N)NC(=O)[C@@H](CC(C)C)NC(=O)[C@@H](Cc3cccnc3)NC2=O)NC(=O)[C@@H](Cc2cccnc2)NC(=O)[C@H](Cc2ccc(Cl)cc2)NC1=O
Ovulating rats [20]: 3

Structure (SMILES): CC(=O)N[C@H](Cc1ccc2ccccc2c1)C(=O)N[C@H](Cc1ccc(Cl)cc1)C(=O)N[C@@H]1CC(=O)NCCCC[C@@H](C(=O)N2CCC[C@H]2C(=O)N[C@H](C)C(N)=O)NC(=O)[C@H](CC(C)C)NC(=O)[C@@H](Cc2ccc3ccccc3c2)NC(=O)[C@H](CCCN=C(N)N)NC(=O)[C@H](C)NC1=O
Ovulating rats [21]: 3
Ovulating rats [22]: 0
Ovulating rats [23]: 5

Structure (SMILES): CC(=O)N[C@@H]1CCC(=O)NCC(=O)NCC[C@H]2NC(=O)[C@@H](CC(=O)NC[C@H](C(N)=O)NC(=O)[C@H]3CCCN3C(=O)[C@H](CCCN=C(N)N)NC(=O)[C@@H](CC(C)C)NC(=O)[C@@H](Cc3ccc4ccccc4c3)NC2=O)NC(=O)[C@@H](Cc2c[nH]c3ccccc23)NC(=O)[C@H](Cc2ccc(Cl)cc2)NC1=O
Ovulating rats [24]: 0
Ovulating rats [25]: 2
Ovulating rats [26]: 1

Structure (SMILES): CC(=O)N[C@H](Cc1ccc2ccccc2c1)C(=O)N[C@H](Cc1ccc(Cl)cc1)C(=O)N[C@@H]1CC(=O)NCCC[C@@H](C(=O)N2CCC[C@H]2C(=O)N[C@H](C)C(N)=O)NC(=O)[C@H](CC(C)C)NC(=O)[C@@H](Cc2ccc3ccccc3c2)NC(=O)[C@H](CCCN=C(N)N)NC(=O)[C@H](C)NC1=O
Ovulating rats [27]: 0
Ovulating rats [28]: 5
